Values quoted from earlier work in US20110123642A1 (priority 2008, published 2011).

Compound | pKa | pKa^1 | pKa^2 | pKa^3 | pKa^4
O=C(O)CN(CC(=O)O)CC(=O)O [NTA, reference compound] | 9.7 | – | – | – | –
O=C(O)CN(CCN(CC(=O)O)CC(=O)O)CC(=O)O [EDTA, reference compound] | 10.2 | – | – | – | –
O=C([O-])CC[C@@H](C(=O)[O-])N(CC(=O)[O-])CC(=O)[O-].[Na+].[Na+].[Na+].[Na+] [GLDA, L-glutamic acid-N,N-diacetic acid, tetrasodium salt] | 9.4 | 9.4 | 5.0 | 3.5 | 2.6
